We go through eight substances from patent US20090258381A1, “Methods for Determining the Cleavability of Substrates” (priority 2005, published 2009).

The nature of data set [1]: Half-lives of peptides in murine intestinal fluid (intestinal enzyme solution). As to conditions: relates to undiluted murine intestinal fluid, 90 min incubation in dilutions, 37° C. How it is done: Anesthetized female Balb/c mice were sacrificed by cervical dislocation and their abdominal wall was opened. The small bowel was clamped with a hemostat behind the stomach outlet (proximal end) and severed from the stomach. The small bowel was exposed and clamped with a second hemostat near the posterior (distal) end. The bowel was severed a second time behind this point.
The subsequent preparation steps to obtain the digestive secretions were performed on an ice-cooled surface. The small bowel closed on both sides was agitated in ice-cold simulated intestinal fluid (SIF; 8 mM phosphate, pH 7.2, with 4.6 mM K^+, 111.3 mM Na^+, 101.5 mM Cl) according to Lockwood and Randall (1949), which was intended to imitate as accurately as possible the physiological conditions of the small bowel in terms of ion concentrations, in order to remove external contaminants and keep it moist. To obtain the digestive secretions present in the small bowel, the distal end of the bowel was suspended in a reaction vessel and the hemostat attached on this side was removed. A lateral cut was then made at the proximal end of the bowel so that a syringe provided with a button cannula could be introduced into the bowel which was held without tension. The bowel contents were washed out in three steps. The washing solutions were successively injected slowly into the bowel and collected at the lower end of the bowel separately in three reaction vessels. Firstly, the bowel was rinsed with a volume of 6 ml of perfluorohexane, an inert liquid which is immiscible with water, and the perfluorohexane was driven out with 4 ml of air. Then a mixture of 2.25 ml of perfluorohexane and 0.25 ml of SIF which contained the nonphysiological ions Li^+ and Cs^+, was used for washing in order to be able subsequently to determine the dilution by spectroscopic methods. […] In a third washing step, 5 ml of SIF without tracer were injected. Solid constituents of the bowel contents and the perfluorohexane were separated by centrifugation from the aqueous phase, in which the digestive enzymes were present. An inductively coupled plasma mass spectrometry (ICP-MS) was used to determine the concentrations of Li^+ and Cs^+ in the intestinal enzyme solution, and the dilution factor was calculated taking the volume of the washing buffer into account. The dilution of the third lavage was ascertained via endogenous markers of intestinal secretion (e.g. enzymic activities, immunoglobulins), in comparison with the first two intestinal enzyme solutions. The enzyme solutions were stored after freezing with liquid nitrogen at −70° C.
On a polypropylene microtiter plate having the same format as the coated polystyrene microtiter plate (see example 4), 7.5 μl of peptide solution were introduced into the first well of a row, and 5 μl of the peptide solution were introduced into each of the next 10 wells. The last well remained empty and was intended to serve as background correction. Then, simulated intestinal fluid (SIF) with the addition of 0.005% Tween 20 and 1 mM CaCl (SIFT-CaCl) was put in all the wells. The well with 7.5 μl of peptide solution received 60 μl of SIFT-CaCl, and the wells with 5 μl of peptide solution each received 45 μl of SIFT-CaCl. The empty well for the background correction received 50 μl of SIFT-CaCl. The enzymatic reaction was then started by adding 7.5 μl of a dilution of an intestinal enzyme solution (obtained as in example 2) to the well with 7.5 μl of peptide solution and 60 μl of SIFT-CaCl. 25 μl of this mixture were immediately pipetted into the next well and mixed, and this step was repeated to result in a serial 1:3 dilution of the intestinal enzyme solution over a total of 10 wells. No enzyme solution was put into the last peptide-containing well. Each well thus contained a volume of 50 μl after the serial dilution.

For data set [2], the system named is trypsin. As to conditions: cleaved with trypsin; FRET-based methods (Grahn et al., 1998); cited from earlier work.
Data set [3] deals with chymotrypsin. Kind of data set: Inhibition of enzymatic conversion of GVPFGP by chymotrypsin. The data set is classed as biochemical. As to conditions: degradation of GVPFGP by chymotrypsin; geometric mean and standard deviation of a quadruplicate measurement; read-out: inhibition constant. How it is done:
(§1) Inhibition constants were measured by carrying out two parallel enzyme dilutions in each case. One enzyme dilution was carried out in the presence, and the other enzyme dilution in the absence, of the protease inhibitor aprotinin. […] The peptide chosen for the trypsin enzyme had the amino acid sequence GPARLA (number 42 from example 1) and the peptide chosen for the chymotrypsin enzyme had the sequence GVPFGP (number 43 from example 1). […] Then, to carry out the proteolytic cleavage in the presence of an inhibitor, 7.5 μl of an aprotinin solution (1 μg/ml for trypsin and 1 mg/ml for chymotrypsin) were put into the first well, and 5 μl of the aprotinin solution (1 μg/ml for trypsin and 1 mg/ml for chymotrypsin) were put into each of the next 10 wells. […] No enzyme solution was put in the last peptide-containing well.
(§2) The inhibition constant of aprotinin can be calculated by comparing the catalytic efficiency (kcat/KM) in the presence and in the absence of aprotinin. kcat/KM values are calculated according to equation (6) and the relationship obtained (equation (17)):
(§3) (kcat/KM)0/(kcat/KM)=1+[I]total/Ki

The target of data set [4] is trypsin. Kind of data set: Inhibition of enzymatic conversion of GPARLA by trypsin. The following applies: degradation of substrate GPARLA by trypsin; geometric mean and standard deviation of a quadruplicate measurement; read-out: inhibition constant. The data set is classed as biochemical. How it is done: as §1, §2, §3

Substance FDKLPGFGDSIEAQCG yielded a t1/2 in data set [1] (16-mer peptides) of 5.6930 s.
In turn, FGDSIEAQCGTSVNVH yielded a t1/2 in data set [1] (16-mer peptides) of 1.3951 s.
For “GPARLAIG [GPARLAIG variant of the trypsin substrate, measured with FRET-based methods (Grahn et al., 1998)]”, in data set [2], the catalytic efficiency was 1.2e+06 M⁻¹ s⁻¹.
As for GSAEAGVDAA, in data set [1] (10-mer peptides), the t1/2 was determined as 3.1271 s.
KLPGFGDSIEAQCGTS showed a t1/2 in data set [1] (16-mer peptides) of 6.4211 s.
In data set [1] (16-mer peptides), PGFGDSIEAQCGTSVN gave a t1/2 of 5.0348 s.
Substance VVGSAEAGVD yielded a t1/2 in data set [1] (10-mer peptides) of 4.0618 s.
In the case of aprotinin, the results for the Ki in data set [3] and in data set [4] were 0.48 µM and 0.001 µM, respectively.
